Test results reported in article PMC6199744, “Development of Chemical Proteomics for the Folateome and Analysis of the Kinetoplastid Folateome” (ACS Infectious Diseases, 2018).
Read-outs that look alike come from different tables or passages of the source.

What was measured:
Assay type in all cases: binding
[1] = target: T1, HeLa cell extract proteins (Homo sapiens, UniProt O75390)
T1 construct: endogenous in cells; host or cells: HeLa cell extract
T1 sequence (O75390 28-466): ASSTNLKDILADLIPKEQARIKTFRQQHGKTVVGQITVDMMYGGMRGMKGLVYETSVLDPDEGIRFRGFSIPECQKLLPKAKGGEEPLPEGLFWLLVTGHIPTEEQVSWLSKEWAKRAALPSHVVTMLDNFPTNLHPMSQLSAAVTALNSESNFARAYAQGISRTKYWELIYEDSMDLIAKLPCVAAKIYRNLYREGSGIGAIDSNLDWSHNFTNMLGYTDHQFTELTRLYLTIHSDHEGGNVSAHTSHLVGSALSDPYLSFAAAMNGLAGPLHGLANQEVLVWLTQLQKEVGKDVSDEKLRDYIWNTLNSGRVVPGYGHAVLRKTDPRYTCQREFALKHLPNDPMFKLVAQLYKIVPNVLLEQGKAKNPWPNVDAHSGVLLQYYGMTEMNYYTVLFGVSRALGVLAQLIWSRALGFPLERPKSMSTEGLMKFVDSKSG

[2] = target: T2, HeLa cell extract proteins (Homo sapiens, UniProt P13995)
T2 construct: endogenous in cells; host or cells: HeLa cell extract
T2 sequence (P13995 36-350): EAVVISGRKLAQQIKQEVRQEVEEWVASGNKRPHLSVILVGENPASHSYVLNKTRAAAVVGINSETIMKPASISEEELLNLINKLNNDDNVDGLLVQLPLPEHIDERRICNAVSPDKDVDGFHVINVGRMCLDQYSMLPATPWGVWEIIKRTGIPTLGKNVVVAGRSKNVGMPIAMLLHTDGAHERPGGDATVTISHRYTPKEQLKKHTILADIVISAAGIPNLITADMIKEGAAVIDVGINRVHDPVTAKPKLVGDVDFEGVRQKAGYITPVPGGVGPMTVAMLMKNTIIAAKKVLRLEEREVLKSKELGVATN

[3] = target: T3, HeLa cell extract proteins (Homo sapiens, UniProt P51149)
T3 construct: endogenous in cells; host or cells: HeLa cell extract
T3 sequence (P51149 whole entry): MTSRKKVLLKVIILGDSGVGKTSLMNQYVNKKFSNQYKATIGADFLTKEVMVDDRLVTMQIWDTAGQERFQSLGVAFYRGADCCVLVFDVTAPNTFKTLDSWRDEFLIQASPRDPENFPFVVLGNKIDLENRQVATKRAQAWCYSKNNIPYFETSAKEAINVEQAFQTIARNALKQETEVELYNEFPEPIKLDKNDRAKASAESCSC

[4] = target: T4, HeLa cell extract proteins (Homo sapiens, UniProt P53621)
T4 construct: endogenous in cells; host or cells: HeLa cell extract
T4 sequence (P53621 1-1224): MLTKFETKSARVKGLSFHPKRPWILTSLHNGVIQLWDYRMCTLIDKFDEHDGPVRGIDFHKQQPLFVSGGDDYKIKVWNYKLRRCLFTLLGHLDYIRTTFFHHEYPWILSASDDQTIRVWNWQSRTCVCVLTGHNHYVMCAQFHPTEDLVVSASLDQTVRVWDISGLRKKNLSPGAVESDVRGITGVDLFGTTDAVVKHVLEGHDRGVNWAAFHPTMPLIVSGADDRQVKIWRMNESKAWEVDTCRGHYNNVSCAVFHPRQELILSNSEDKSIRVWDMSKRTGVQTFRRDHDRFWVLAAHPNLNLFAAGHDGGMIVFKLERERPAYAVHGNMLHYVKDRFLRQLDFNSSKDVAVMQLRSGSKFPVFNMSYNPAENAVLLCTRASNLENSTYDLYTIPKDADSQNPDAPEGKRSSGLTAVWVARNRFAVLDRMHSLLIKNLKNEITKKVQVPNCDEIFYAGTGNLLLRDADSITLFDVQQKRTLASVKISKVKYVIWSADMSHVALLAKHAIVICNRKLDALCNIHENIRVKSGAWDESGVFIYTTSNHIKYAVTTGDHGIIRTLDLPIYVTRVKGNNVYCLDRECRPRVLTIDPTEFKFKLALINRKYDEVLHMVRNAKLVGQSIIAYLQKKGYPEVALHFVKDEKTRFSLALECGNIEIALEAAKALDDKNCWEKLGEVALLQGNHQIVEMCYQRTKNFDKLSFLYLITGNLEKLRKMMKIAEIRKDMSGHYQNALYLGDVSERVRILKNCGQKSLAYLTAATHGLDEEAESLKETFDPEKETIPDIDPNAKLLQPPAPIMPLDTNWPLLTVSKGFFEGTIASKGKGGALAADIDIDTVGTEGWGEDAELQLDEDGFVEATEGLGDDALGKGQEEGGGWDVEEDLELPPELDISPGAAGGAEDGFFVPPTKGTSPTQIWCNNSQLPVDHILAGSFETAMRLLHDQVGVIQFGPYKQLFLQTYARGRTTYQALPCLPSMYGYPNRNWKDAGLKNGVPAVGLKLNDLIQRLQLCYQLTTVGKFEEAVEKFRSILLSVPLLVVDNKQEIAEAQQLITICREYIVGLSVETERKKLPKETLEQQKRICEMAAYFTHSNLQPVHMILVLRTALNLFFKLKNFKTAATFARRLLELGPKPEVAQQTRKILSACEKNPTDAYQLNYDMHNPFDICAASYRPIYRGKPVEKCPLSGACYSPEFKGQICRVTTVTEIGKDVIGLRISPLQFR

[5] = target: T5, HeLa cell extract proteins (Homo sapiens, UniProt Q9BXR0)
T5 construct: endogenous in cells; host or cells: HeLa cell extract
T5 sequence (Q9BXR0 1-403): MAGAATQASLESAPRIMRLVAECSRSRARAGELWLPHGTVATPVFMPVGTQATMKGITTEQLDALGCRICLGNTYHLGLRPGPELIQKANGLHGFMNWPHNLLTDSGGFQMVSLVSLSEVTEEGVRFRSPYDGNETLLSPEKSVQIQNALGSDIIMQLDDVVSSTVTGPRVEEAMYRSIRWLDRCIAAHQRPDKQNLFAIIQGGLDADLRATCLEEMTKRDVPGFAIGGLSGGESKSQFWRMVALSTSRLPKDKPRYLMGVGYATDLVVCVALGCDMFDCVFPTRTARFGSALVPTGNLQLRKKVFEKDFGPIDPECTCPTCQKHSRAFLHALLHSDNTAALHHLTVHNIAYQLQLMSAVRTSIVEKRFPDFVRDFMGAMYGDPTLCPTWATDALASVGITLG

Structure (SMILES)	fold changes relative to vehicle control ([1]; protein CS, HeLa)	fold changes relative to vehicle control ([2]; protein MTHFD2, HeLa)	fold changes relative to vehicle control ([3]; protein RAB7A, HeLa)	fold changes relative to vehicle control ([4]; protein COPA, HeLa)	fold changes relative to vehicle control ([5]; protein QTRT1, HeLa)	fold changes relative to vehicle control [1]	fold changes relative to vehicle control [2]	fold changes relative to vehicle control [3]	fold changes relative to vehicle control [4]	fold changes relative to vehicle control [5]	fold changes relative to vehicle control ([1]; HeLa, captured protein CS)	fold changes relative to vehicle control ([2]; HeLa, captured protein MTHFD2)
Nc1nc2cccc(-c3ccccc3)c2n1Cc1ccc(Cl)c(Cl)c1 [compound 3]	1.02	1.03	1.12	0.93	1.03	–	–	–	–	–	–	–
Nc1nc2[nH]cc(CCc3ccc(C(=O)N[C@@H](CCC(=O)O)C(=O)O)cc3)c2c(=O)[nH]1 [PTX, pemetrexed]	–	–	–	–	–	1.2	1.05	1.12	0.82	0.84	–	–
Nc1nc2c(c(=O)[nH]1)N(C=O)C(CNc1ccc(C(=O)N[C@@H](CCC(=O)O)C(=O)O)cc1)CN2 (some centres unmarked) [LEU, leucovorin]	–	–	0.99	0.81	0.96	–	–	–	–	–	1.05	0.7
CCCCCCOc1cccc(Cc2cnc(N)nc2N)c1 [compound 2]	1.99	0.95	1.58	1.31	1.05	–	–	–	–	–	–	–
NCCOCCOCC(=O)Nc1nc2ncc(CNc3ccc(C(=O)NC(CCC(=O)O)C(=O)O)cc3)nc2c(=O)[nH]1 (centres unmarked) [compound 6]	–	–	1.31	1	0.28	–	–	–	–	–	1.32	1.06
CCCCCCOc1ccc(Cc2cnc(N)nc2N)cc1 [compound 1]	1.38	0.09	1.21	1.07	0.51	–	–	–	–	–	–	–
NCCCNc1ccc(C(=O)NC(CCC(=O)O)C(=O)O)cc1 (centres unmarked) [compound 7]	–	–	1.05	0.89	0.98	–	–	–	–	–	1.3	1.02
